Assay [1] deals with kinase. The note with it: Bettayeb et al. 2008; Popowycz et al. 2009; cited from earlier work.
The conditions of assay [2]: Bettayeb et al. 2008; Popowycz et al. 2009; cited from earlier work.
In assay [3] the target is CLK4 (Homo sapiens, UniProt Q9HAZ1). In words: Kinase inhibition, dose-response. The assay is classed as biochemical. Particulars: read-out: IC50 CLK4; > 10: no inhibition at 10 µM, the highest dose tested. The text has this:
All compounds were additionally tested over a range of concentrations for their ability to inhibit a series of 14 kinases. […] Their F508del-CFTR activity is reported as percentage of F508del-CFTR activity in the presence of Trikafta alone (100%).

The target of assay [4] is T1, F508del-CFTR (Homo sapiens, UniProt P13569, DEL508-508).
T1 construct: expressed in transfected cells; host or cells: CFBE41o- cells (CFBE F508del-CFTR), puromycin-selected
In words: CFTR activation assay: short-circuit current measurements (Ussing chamber) in CFBE cells treated 24 h with CFTR modulator(s) plus compound. Type of assay: cell-based. The note with it: for F508del-CFTR activity as percentage of F508del-CFTR activity in the presence of Trikafta alone (100%): CFE cells, with Trikafta. The method, then: • FIG 1. represents the conductance measurement as a function of time for assessing the activity of F508del-CFTR in CFBE cells using the Ussing chamber as set forth in example 13. Cells are incubated for 24 hours with either Trikafta® alone or Trikafta® + a compound of formula (I) as defined herein after. Conductance is measured as a function of time. […] This is the measure which are reported in all Tables shown below. • FIG 2. The correcting effect of Trikafta® on F508del-CFTR in a pulmonary epithelial cell line derived from a F508del-CFTR CF patient was tested as set forth in example 13 herein after in the presence of increasing concentrations of compound (44) as defined herein after and compound (107) as defined herein after. Dose-response curves were built from the activation and inhibition data (see FIG. 1). 100% represents the activity of Trikafta® alone. • FIG 3. […] CFE cells were treated with Trikafta® 100%, 33%, or 11%, in the absence or presence of 1 µM of compound (107). F508del-CFTR activity was monitored as described in the Experimental section and above. Activity is reported as percentage of δF508del-CFTR activity in the presence of Trikafta® alone (100%). The fold change over the activity of Trikafta® alone is indicated in parentheses. • FIG 4. The correcting effect of further CFTR modulators than Trikafta®, i.e. Galapagos compounds as defined herein after (GLPG 222 (G1), GLPG 1837 (G2), GLPG 2451 (G3)) (1 µM each) on F508del-CFTR in a pulmonary epithelial cell line derived from a F508del-CFTR CF patient was tested as set forth in example 13 herein after in the presence of increasing concentrations of compound (107) as defined herein after. Dose-response curves were built from the activation and inhibition data (see FIG. 1). 100% represents the activity of each CFTR modulator alone.
The activity of F508del-CFTR was indeed estimated according to the method described below in example 13. This method makes use of CFBE cells, an immortalized cell line generated from bronchial epithelium of a CF patient homozygous for F508del-CFTR [Kunzelmann, K. et al., 1993. An immortalized cystic fibrosis tracheal epithelial cell line homozygous for the F508del CFTR mutation. Am. J. Respir. Cell Mol. Biol. 8, 522-529.]. Cells are exposed for 24 hours to a combination of Trikafta® and a compound of formula (I) as defined herein after to be evaluated, and the activity of F508del-CFTR is measured by conductance in a Ussing chamber. The activation is initiated by addition of Forskolin (1 µM). […] All compounds tested were evaluated in combination with Trikafta®. In most instances, compounds were tested in triplicates at 0.1, 1 and 10 µM.
Wild-type CFBE cells (containing full-length, unmutated CFTR) are used as a reference.
F508del-CFTR expressing cells used in this present study were treated with CFTR modulators 24 h prior the experiments. The following CFTR modulators were used: Vx770 (Ivacaftor) (Selleckchem, S 1144) (Selleckchem, 24, rue des Tuileries, BP684, 67460 Souffelweyersheim, France), Vx445 (Elexacaftor) (Selleckchem, SE-S8851), Vx661 (Tezacaftor) (TargetMol, HY-15448) (TargetMol, Tebu-bio, 39 rue de Houdan, BP 15, 78612 Le-Perray-en-Yvelines cedex, France). Trikafta® is the combination of 1 µM Vx770, 3 µM Vx 445 and […] Vx661.
CFBE cell line stably expressing F508del-CFTR or WT-CFTR (CFBE WT-CFTR) were grown at 37°C in 5% CO2 - 95% air and media was replaced every 2 days.

The target of assay [5] is CLK2 (Homo sapiens, UniProt P49760). The assay can be described thus: Kinase inhibition, dose-response. The assay is classed as biochemical. The note with it: > 10: no inhibition at 10 µM, the highest dose tested. On the procedure:
(§1) All compounds were additionally tested over a range of concentrations for their ability to inhibit a series of 14 kinases. IC50 values were calculated from the dose-response curves and are reported in µM. > 10, no inhibition at 10 µM, the highest dose tested (see table 6 below). [drawing 409] Table 5: CFE cells were treated with Trikafta in the presence of increasing concentrations of various compounds and their N7-methylated counterparts. Their F508del-CFTR activity is reported as percentage of F508del-CFTR activity in the presence of Trikafta alone (100%).

Assay [6] concerns the target CK1γ3 (Homo sapiens, UniProt Q9Y6M4). In words: Kinase inhibition, dose-response. Type of assay: biochemical. Particulars: > 10: no inhibition at 10 µM, the highest dose tested. On the procedure:
as §1

For assay [7], the target named is CDK9 (Homo sapiens, UniProt P50750). In words: Kinase inhibition, dose-response. The assay is classed as biochemical. The note with it: > 10: no inhibition at 10 µM, the highest dose tested. On the procedure:
as §1

Assay [8] deals with CK1γ1 (Homo sapiens, UniProt Q9HCP0). The assay can be described thus: Kinase inhibition, dose-response. Type of assay: biochemical. Particulars: > 10: no inhibition at 10 µM, the highest dose tested. On the procedure: as §1
Assay [9] has as its target CLK1 (Homo sapiens, UniProt P49759). In words: Kinase inhibition, dose-response. The assay is classed as biochemical. Particulars: > 10: no inhibition at 10 µM, the highest dose tested. The method, then: as §1
Assay [10] deals with CK1ε (Homo sapiens, UniProt P49674). The assay can be described thus: Kinase inhibition, dose-response. Type of assay: biochemical. Particulars: > 10: no inhibition at 10 µM, the highest dose tested. The method, then: as §1
Assay [11] concerns the target CK1δ (Homo sapiens, UniProt P48730). In words: Kinase inhibition, dose-response. The assay is classed as biochemical. Particulars: > 10: no inhibition at 10 µM, the highest dose tested. On the procedure:
as §1

Assay [12] concerns the target CK1α1 (Homo sapiens, UniProt P48729). The assay can be described thus: Kinase inhibition, dose-response. Particulars: > 10: no inhibition at 10 µM, the highest dose tested. Type of assay: biochemical. The method, then: as §1
Assay [13] has as its target CDK7 (Homo sapiens, UniProt P50613). The assay can be described thus: Kinase inhibition, dose-response. The assay is classed as biochemical. The note with it: > 10: no inhibition at 10 µM, the highest dose tested. The method, then:
as §1

Assay [14] addresses CLK3 (Homo sapiens, UniProt P49761). In words: Kinase inhibition, dose-response. Type of assay: biochemical. The note with it: > 10: no inhibition at 10 µM, the highest dose tested. On the procedure:
as §1

Assay [15] concerns the target DYRK1A (Homo sapiens, UniProt Q13627). In words: Kinase inhibition, dose-response. Particulars: > 10: no inhibition at 10 µM, the highest dose tested. Type of assay: biochemical. The method, then:
as §1

In assay [16] the target is CK1γ2 (Homo sapiens, UniProt P78368). The assay can be described thus: Kinase inhibition, dose-response. Type of assay: biochemical. Particulars: > 10: no inhibition at 10 µM, the highest dose tested. On the procedure:
as §1

The target of assay [17] is CDK2 (Homo sapiens, UniProt P24941). In words: Kinase inhibition, dose-response. Type of assay: biochemical. Particulars: > 10: no inhibition at 10 µM, the highest dose tested. The method, then: as §1
The subject of assay [18] is F508del-CFTR. Particulars: Norez et al. 2014; cited from earlier work.
Assay [19] relates to alveolar macrophages. Particulars: Riazanski et al. 2015; cited from earlier work.

The values that follow come from EP4268824A1 (Manros Therapeutics, priority 2022, dated 2023).

A value given as a limit tells only on which side of the number the result lay.

As usually defined, the IC50 is the concentration needed to halve the response being measured.

T1 sequence (P13569 with tags, fused parts or gaps DEL508-508): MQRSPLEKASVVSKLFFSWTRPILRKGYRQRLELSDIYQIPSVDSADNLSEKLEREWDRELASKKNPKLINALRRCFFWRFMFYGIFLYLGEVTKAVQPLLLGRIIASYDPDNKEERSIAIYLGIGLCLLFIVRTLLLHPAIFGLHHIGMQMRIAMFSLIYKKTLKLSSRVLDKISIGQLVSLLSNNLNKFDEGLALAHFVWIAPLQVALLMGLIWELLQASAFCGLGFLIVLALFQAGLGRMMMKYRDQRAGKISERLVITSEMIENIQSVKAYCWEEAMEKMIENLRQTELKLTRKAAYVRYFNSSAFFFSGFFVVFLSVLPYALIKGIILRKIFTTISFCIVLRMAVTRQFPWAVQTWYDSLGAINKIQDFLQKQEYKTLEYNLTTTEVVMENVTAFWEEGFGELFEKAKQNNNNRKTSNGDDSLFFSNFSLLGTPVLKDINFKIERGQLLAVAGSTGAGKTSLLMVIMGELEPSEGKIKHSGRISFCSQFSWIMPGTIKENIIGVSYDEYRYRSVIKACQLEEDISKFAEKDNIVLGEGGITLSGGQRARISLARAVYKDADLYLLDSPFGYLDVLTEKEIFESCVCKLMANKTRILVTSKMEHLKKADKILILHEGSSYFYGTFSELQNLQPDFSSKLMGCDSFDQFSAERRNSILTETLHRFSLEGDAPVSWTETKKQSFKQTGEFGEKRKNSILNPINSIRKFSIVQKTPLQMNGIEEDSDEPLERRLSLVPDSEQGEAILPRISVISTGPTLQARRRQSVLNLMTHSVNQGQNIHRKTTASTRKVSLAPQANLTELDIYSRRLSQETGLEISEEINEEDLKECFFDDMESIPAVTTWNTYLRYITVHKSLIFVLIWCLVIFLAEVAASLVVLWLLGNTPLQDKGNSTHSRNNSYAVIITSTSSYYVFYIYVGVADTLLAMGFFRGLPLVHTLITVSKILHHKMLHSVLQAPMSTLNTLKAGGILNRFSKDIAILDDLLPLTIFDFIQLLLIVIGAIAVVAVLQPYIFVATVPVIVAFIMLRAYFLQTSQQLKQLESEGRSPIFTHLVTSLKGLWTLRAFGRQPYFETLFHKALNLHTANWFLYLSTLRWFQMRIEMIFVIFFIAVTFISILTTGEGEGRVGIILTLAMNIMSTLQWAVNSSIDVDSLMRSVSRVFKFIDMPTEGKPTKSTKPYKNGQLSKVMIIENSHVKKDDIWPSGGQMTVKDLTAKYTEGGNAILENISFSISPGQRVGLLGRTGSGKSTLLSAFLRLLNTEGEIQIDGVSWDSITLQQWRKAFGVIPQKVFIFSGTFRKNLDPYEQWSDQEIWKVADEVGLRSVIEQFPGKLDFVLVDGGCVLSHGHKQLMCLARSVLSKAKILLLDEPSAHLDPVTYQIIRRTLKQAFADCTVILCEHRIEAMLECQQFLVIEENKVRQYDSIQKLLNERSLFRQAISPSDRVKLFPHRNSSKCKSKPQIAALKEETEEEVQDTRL
Chain of CK1γ1 (Q9HCP0 whole entry): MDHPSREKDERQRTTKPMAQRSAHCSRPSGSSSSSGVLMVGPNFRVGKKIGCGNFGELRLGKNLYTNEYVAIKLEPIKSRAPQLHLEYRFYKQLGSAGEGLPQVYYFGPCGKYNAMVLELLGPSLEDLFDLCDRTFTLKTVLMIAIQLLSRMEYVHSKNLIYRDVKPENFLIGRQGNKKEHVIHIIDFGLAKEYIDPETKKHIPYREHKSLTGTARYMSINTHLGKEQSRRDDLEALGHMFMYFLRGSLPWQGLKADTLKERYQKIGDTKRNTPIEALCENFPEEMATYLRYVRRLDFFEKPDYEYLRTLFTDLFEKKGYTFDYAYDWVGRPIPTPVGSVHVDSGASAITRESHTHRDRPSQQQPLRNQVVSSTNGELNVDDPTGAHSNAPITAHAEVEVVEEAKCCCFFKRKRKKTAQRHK
Chain of CDK9 (P50750 whole entry, species assumed): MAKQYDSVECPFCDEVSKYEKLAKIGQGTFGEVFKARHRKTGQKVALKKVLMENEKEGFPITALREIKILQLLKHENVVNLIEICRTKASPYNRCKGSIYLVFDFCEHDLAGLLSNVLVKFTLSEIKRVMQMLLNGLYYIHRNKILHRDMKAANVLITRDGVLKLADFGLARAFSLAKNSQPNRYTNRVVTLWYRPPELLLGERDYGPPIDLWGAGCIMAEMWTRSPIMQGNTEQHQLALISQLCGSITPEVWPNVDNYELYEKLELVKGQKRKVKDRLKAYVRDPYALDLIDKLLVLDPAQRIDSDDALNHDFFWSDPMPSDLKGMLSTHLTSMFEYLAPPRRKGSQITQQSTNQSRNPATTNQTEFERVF
Chain of CDK9 (O60563 whole entry partner, species assumed): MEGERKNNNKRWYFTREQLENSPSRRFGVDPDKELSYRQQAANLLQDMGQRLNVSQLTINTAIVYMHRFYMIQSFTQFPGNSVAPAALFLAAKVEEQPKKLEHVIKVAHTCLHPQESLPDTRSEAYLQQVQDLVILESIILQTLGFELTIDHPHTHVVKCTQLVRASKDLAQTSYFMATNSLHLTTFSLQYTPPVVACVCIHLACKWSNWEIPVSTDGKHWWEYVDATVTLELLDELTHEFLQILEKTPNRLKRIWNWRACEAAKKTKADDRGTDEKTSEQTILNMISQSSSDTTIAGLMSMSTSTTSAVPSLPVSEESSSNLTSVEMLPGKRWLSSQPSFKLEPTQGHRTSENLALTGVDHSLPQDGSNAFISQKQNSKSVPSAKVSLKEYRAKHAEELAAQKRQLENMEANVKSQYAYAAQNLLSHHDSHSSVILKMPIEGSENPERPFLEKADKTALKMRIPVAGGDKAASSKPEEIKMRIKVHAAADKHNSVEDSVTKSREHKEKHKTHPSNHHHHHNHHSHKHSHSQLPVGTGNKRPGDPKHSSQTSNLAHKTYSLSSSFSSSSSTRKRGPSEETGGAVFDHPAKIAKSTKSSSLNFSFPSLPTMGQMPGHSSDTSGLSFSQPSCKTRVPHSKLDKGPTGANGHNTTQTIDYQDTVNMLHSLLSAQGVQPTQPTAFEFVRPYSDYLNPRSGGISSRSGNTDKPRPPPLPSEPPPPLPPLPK
Chain of CLK3 (P49761 whole entry, species assumed): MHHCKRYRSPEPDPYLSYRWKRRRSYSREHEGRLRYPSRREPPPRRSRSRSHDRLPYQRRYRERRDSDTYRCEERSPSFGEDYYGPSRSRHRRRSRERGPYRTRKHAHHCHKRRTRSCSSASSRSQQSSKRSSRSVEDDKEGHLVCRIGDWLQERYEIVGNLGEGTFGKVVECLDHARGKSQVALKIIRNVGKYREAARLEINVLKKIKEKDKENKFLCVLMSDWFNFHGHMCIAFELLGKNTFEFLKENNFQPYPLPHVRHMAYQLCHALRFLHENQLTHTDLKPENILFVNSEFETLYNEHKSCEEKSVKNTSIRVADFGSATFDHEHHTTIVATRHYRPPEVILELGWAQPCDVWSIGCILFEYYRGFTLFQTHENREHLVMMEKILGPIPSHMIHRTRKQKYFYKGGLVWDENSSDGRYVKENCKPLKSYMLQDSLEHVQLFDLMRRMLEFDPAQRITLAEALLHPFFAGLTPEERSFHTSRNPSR
Chain of CLK4 (Q9HAZ1 whole entry, species assumed): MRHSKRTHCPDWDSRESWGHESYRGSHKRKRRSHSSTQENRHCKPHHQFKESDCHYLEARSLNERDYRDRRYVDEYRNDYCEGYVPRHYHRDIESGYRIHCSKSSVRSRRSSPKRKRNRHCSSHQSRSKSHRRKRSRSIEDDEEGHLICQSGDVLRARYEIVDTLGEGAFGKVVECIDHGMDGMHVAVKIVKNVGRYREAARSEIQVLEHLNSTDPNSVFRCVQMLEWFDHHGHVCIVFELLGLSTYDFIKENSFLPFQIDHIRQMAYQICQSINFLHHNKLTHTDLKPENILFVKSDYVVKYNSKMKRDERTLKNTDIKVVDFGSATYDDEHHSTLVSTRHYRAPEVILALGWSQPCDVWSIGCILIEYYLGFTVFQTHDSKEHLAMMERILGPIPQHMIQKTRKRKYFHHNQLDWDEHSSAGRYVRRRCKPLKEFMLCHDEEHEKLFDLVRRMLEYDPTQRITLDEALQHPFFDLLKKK
Chain of CK1γ3 (Q9Y6M4 whole entry): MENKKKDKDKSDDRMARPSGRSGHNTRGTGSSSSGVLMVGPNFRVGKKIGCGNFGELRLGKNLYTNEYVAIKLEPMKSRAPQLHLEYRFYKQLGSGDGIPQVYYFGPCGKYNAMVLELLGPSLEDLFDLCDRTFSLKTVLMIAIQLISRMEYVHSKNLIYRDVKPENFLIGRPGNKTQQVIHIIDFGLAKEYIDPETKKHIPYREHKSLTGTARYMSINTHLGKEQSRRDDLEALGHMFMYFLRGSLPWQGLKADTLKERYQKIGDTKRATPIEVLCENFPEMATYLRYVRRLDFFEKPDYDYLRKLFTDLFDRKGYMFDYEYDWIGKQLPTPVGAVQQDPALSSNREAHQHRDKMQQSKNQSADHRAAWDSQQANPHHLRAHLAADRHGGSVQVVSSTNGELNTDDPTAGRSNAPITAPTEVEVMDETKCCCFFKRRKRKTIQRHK
Chain of CLK1 (P49759 whole entry): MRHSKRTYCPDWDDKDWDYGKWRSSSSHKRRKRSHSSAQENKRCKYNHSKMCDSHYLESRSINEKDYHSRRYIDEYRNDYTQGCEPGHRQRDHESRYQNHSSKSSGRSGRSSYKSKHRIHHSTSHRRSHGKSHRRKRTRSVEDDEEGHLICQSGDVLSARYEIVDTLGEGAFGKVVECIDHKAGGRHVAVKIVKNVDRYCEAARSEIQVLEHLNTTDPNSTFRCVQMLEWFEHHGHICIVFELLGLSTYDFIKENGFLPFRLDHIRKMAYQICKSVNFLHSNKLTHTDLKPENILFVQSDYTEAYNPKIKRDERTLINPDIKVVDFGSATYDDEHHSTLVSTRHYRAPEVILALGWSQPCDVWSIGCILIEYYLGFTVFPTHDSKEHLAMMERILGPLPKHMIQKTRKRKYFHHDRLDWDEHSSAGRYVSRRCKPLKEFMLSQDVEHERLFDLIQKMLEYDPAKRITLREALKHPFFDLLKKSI

Take `CC[C@H](CO)Nc1nc(NCc2ccccc2)c2ncc(C(C)C)n2n1` [compound 6, (2R)-2-[[4-(Benzylamino)-7-isopropyl-imidazo[2,1-f][1,2,4]triazin-2-yl]amino]butan-1-ol]: the kinase inhibitory activity result in [1] is given as “modest kinase inhibitory activity”. The antitumor properties entry in assay [2] is recorded as “modest antitumor properties”.
As for `CC(C)c1cnc2c(N(C)Cc3ccccc3)nc(NC3CCOCC3)nn12` [compound 49], the IC50 in [3], in assay [5], in [6], in assay [7], in assay [8] and in [9] was greater than 10 µM in each case. The half-inhibitory concentration (IC50) in assay [10], in assay [11], in [12], in assay [13], in assay [14] and in [15] was greater than 10 µM each time. Besides, the 50% inhibitory concentration (IC50) in assay [16] and in assay [17] was greater than 10 µM in each case. The entries for the “F508del-CFTR activity as percentage of F508del-CFTR activity in the presence of Trikafta alone (100%)” value in [4] (concentration 0.1 µM), in assay [4] (concentration 1 µM) and in assay [4] (concentration 10 µM) were 113.0%, 125.9% and 147.1%, respectively.
Consider `CC[C@H](CO)Nc1nc(NCc2ccccc2)c2ncn(C(C)C)c2n1` [roscovitine], for which the “correction of the defective function of F508del-CFTR” value in [18] was “partially correct the defective function of F508del-CFTR”. In addition, the “activating or boosting activity on a human lung epithelium cell line with F508del-CFTR mutation, in combination with Trikafta®” value in assay [4] (result in words) is “no activating or boosting activity”. Also, the “intra-phagolysosomal pH of alveolar macrophages” value in [19] is “reduce the intra-phagolysosomal pH of alveolar macrophages”.
